Legend:
Assay type in all cases: biochemical
Cathepsin S = Cathepsin S (Homo sapiens, UniProt P25774); experiment: Cathepsin S inhibition assay (fluorogenic peptide substrate); details: Cathepsin S inhibition constant; pH5.5; read-out: Ki Cat. S
From the text: “Inhibition constant”, Ki, is the dissociation constant of the enzyme-inhibitor complex, or the reciprocal of the binding affinity of the inhibitor to the enzyme. For classical inhibition the value of Ki is much greater than the enzyme concentration and the Ki can be measured by monitoring the rate of reaction for a competitive substrate at multiple inhibitor concentrations. The inhibited rates are then fit by nonlinear regression to the following equation: […]
The assumption being made for the classical inhibition described above is that the free inhibitor concentration is equal to the total inhibitor concentration. For inhibitors that have Ki's that are approximately equal to the enzyme concentration [E], the assumption that the free inhibitor concentration is equal to the total inhibitor concentration is no longer valid and an alternative equation has to be fit for determination of the apparent inhibition constant, Ki^app using described methods (Kuzmic, P., K. C. Elrod, et al., Anal Biochem 2000, 286(1), 45-50):
(§1) The optimal substrate for cathepsin S, acetyl-histidine-proline-valine-lysine-amino carbamoyl coumarin, was identified from screening a combinatorial library of fluorogenic peptide substrates (Harris, J. L., B. J. Backes, et al., Proc Natl Acad Sci U S A 2000, 97(14), 7754-9). Kinetic measurements are performed in a total reaction volume of 30 μl in 384-well microtiter plates. Cathepsin S, at a final concentration of 0.3-3 nM (active site), is incubated with the compounds at twelve varying concentrations in a buffer containing 100 mM NaAc (pH5.5), 1 mM EDTA, 100 mM NaCl, 0.01% Brij-35 for 20 minutes at room temperature. Control reactions in the absence of inhibitor are performed in replicates of 24. The reactions are initiated by adding the substrate, acetyl-histidine-proline-valine-lysine-amino carbamoyl coumarin, to a final concentration of 50 μM. The rate of substrate hydrolysis is measured by monitoring the increase in fluorescence at an excitation wavelength of 380 nm and an emission wavelength of 450 nm that results from cleavage of the aniline bond in the substrate by the enzyme. The apparent inhibition constants for the compounds are determined from the enzyme progress curves (Kuzmic, P., K. C. Elrod, et al., Anal Biochem 2000, 286(1), 45-50) and are then used to calculate the inhibition constants for competitive inhibitors.

Cathepsin B = Cathepsin B (Homo sapiens, UniProt P07858); experiment: Cathepsin B inhibition assay, selectivity for cathepsin S over cathepsin B; details: ratio of cathepsin B inhibition constant to cathepsin S inhibition constant
Method: as §1, with “cathepsin B,” for “cathepsin S,”, “Sci US” for “Sci U S”, “Cathepsin B,” for “Cathepsin S,”, “of 1.5” for “of 0.3-3”, “of 10” for “of 50”
(§2) Selectivity for cathepsin S in the presence of cathepsin isozymes was determined by the ratio of the cathepsin isozyme inhibition constant of a compound of the present invention to the cathepsin S inhibition constant of the same compound. Preferred compounds of the present invention selective for cathepsin S have ratios of greater than 10. More preferred compounds of the present invention selective for cathepsin S have ratios of greater than 100. Most preferred compounds of the present invention selective for cathepsin S have ratios of greater than 1000.

Cathepsin L = Cathepsin L (Homo sapiens, UniProt P07711); experiment: Cathepsin L inhibition assay, selectivity for cathepsin S over cathepsin L; details: ratio of cathepsin L inhibition constant to cathepsin S inhibition constant
Chain of Cathepsin L (P07711 114-333, species assumed): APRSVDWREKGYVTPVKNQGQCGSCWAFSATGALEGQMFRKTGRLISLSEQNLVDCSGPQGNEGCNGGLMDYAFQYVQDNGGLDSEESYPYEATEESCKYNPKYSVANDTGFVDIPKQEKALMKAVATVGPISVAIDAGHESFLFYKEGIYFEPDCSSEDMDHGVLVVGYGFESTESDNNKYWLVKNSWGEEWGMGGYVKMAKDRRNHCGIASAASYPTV
Method: (§3) The optimal substrate for cathepsin L, acetyl-histidine-lysine-phenylalanine-lysine-amino carbamoyl coumarin, was identified from screening a combinatorial library of fluorogenic peptide substrates (Harris, J. L., B. J. Backes, et al.; Proc Natl Acad Sci USA 2000, 97(14), 7754-9). Kinetic measurements are performed in a total reaction volume of 30 μl in 384-well microtiter plates. Cathepsin L, at a final concentration of 0.1 nM (active site), is incubated with the compounds at twelve varying concentrations in a buffer containing 100 mM NaAc (pH5.5), 1 mM EDTA, 100 mM NaCl, 0.01% Brij-35 for 20 minutes at room temperature. Control reactions in the absence of inhibitor are performed in replicates of 24. The reactions are initiated by adding the substrate, acetyl-histidine-lysine-phenylalanine-lysine-amino carbamoyl coumarin, to a final concentration of 20 μM. The rate of substrate hydrolysis is measured by monitoring the increase in fluorescence at an excitation wavelength of 380 nm and an emission wavelength of 450 nm that results from cleavage of the aniline bond in the substrate by the enzyme. The apparent inhibition constants for the compounds are determined from the enzyme progress curves (Kuzmic, P., K. C. Elrod, et al., Anal Biochem 2000, 286(1), 45-50) and are then used to calculate the inhibition constants for competitive inhibitors.
as §2

Cathepsin K = target: T1, Cathepsin K (Homo sapiens, UniProt P43235); experiment: Cathepsin K inhibition assay, selectivity for cathepsin S over cathepsin K; details: ratio of cathepsin K inhibition constant to cathepsin S inhibition constant
T1 sequence (P43235 115-329): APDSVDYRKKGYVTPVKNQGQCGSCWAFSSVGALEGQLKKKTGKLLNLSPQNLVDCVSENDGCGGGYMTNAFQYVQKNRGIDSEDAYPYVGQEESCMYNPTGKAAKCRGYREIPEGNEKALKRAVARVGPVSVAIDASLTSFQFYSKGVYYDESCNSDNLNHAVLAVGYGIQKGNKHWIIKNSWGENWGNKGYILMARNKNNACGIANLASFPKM
Method: as §3, with “cathepsin K, acetyl-lysine-histidine-proline-lysine-amino” for “cathepsin L, acetyl-histidine-lysine-phenylalanine-lysine-amino”, “et al.,” for “et al.;”, “Cathepsin K,” for “Cathepsin L,”, “of 3.5” for “of 0.1”, “substrate, acetyl-lysine-histidine-proline-lysine-amino” for “substrate, acetyl-histidine-lysine-phenylalanine-lysine-amino”, “of 40” for “of 20”
as §2

Chain of Cathepsin S (P25774 115-331, species assumed): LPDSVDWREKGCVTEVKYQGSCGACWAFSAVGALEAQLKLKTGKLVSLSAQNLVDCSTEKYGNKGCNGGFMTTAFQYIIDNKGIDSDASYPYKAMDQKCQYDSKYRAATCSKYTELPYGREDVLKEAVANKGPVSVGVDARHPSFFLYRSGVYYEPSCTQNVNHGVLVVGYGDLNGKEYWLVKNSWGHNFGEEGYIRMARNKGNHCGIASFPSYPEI

SMILES | Ki (Cathepsin S) [nM] | Selectivity for Cat. S over Cat. B (Cathepsin B) | Selectivity for Cat. S over Cat. L (Cathepsin L) | Selectivity for Cat. S over Cat. K (Cathepsin K)
O=C1C[C@H](NC(=O)[C@H](CC2CCCC2)NC(=O)c2ccc(-c3cccc(C(F)(F)F)c3)o2)C(O)O1 (stereo partly drawn) [Example 23, (3S)-(3-Cyclopentyl-(2S)-{[5-(3-trifluoromethyl-phenyl)-furan-2-carbonyl]-amino}-propionylamino)-4-oxo-butyric acid] | < 100 | +++ (+++, >1000) | +++ (+++, >1000) | ++ (++, >100)
O=C1C[C@H](NC(=O)[C@H](CC2CCCC2)NC(=O)c2cccc(C(F)(F)F)c2)C(O)O1 (stereo partly drawn) [Example 24, (3S)-(3-Cyclopentyl-(2S)-(3-trifluoromethylphenyl-carbonylamino)-propionylamino)-4-oxo-butyric acid] | < 100 | +++ (+++, >1000) | + (+, >10) | ++ (++, >100)
O=C1CC(NC(=O)C(CC2CCCC2)NC(=O)c2ccc(-c3cccc(F)c3)o2)C(OC2CCCC2)O1 [Example 26, (3S)-[3-Cyclopentyl-(2S)-{[5-(3-fluoro-phenyl)-furan-2-carbonyl]-amino}propionylamino]-2-cyclopentoxy-5-oxo-tetrahydrofuran] | < 100 | +++ (+++, >1000) | +++ (+++, >1000) | + (+, >10)

Source: patent publication US7297714B2, “Inhibitors of cathepsin S” (IRM LLC, priority 2003, dated 2007)
